Common to all, as to type: cell-based
Test [1] concerns E. cloacae 963. The experiment in a line: in vitro antibacterial activity, agar plate dilution method (MIC). The conditions noted are these: for MIC: read-out: Minimum Inhibitory Concentration (MIC). The procedure: (§1) One platinum loopfull of each test microorganism incubated overnight in Mueller Hinton broth, was inoculated to Mueller Hinton agar (inoculum size: 10^6 CFU/ml). Such culture media containing various antibiotics in various concentrations were prepared. After incubation at 37° C. for 16 hours, the minimum inhibitory concentrations (MIC: μg/ml) were measured.

Test [2] relates to E. coli NIHJ JC2. The test is described as above. The conditions noted are these: for MIC: Escherichia coli, read-out: Minimum Inhibitory Concentration (MIC). The procedure:
as §1

The subject of test [3] is K. pneumoniae PCI-602. The description is as above. The conditions noted are these: for MIC: Klebsiella pneumoniae, read-out: Minimum Inhibitory Concentration (MIC). The procedure: as §1
The subject of test [4] is P. vulgaris HX-19. Described as above. The settings on record: for MIC: Proteus vulgaris, read-out: Minimum Inhibitory Concentration (MIC). As to the method: as §1
Test [5] concerns S. marcescens IAM 1184. The description is as above. The conditions noted are these: for MIC: Serratia marcescens, read-out: Minimum Inhibitory Concentration (MIC). As to the method:
as §1

In test [6] the test system is S. aureus 109P NIHJ-JCl. Nature of the test: in vitro antibacterial activity, agar plate dilution method (MIC), second part of Table 1. The conditions noted are these: Staphylococcus aureus, 109PNIHJJCL, read-out: Minimum Inhibitory Concentration (MIC). The procedure:
as §1

In test [7] the test system is S. aureus 209P NIHJ-JCl. The experiment in a line: in vitro antibacterial activity, agar plate dilution method (MIC). The settings on record: for MIC: Staphylococcus aureus, read-out: Minimum Inhibitory Concentration (MIC). The procedure: as §1
Where [8] appears, read: Enterobacter cloacae, E. cloacae 963, 10^6 CFU/ml, MH agar, 37° C., 16 hours.
The mark [9] stands for this setting: HX19, P. vulgaris HX-19, 10^6 CFU/ml, MH agar, 37° C., 16 hours.
[10] abbreviates: IAM1184, S. marcescens IAM 1184, 10^6 CFU/ml, MH agar, 37° C., 16 hours.
Setting [11] is: NIHJJC2, E. coli NIHJ JC2, 10^6 CFU/ml, MH agar, 37° C., 16 hours.
[12] abbreviates: PCI602, K. pneumoniae PCI-602, 10^6 CFU/ml, MH agar, 37° C., 16 hours.
[13] abbreviates: S. aureus 109P NIHJ-JCl, 10^6 CFU/ml, MH agar, 37° C., 16 hours.
Setting [14] is: Enterobacter cloacae, 963, 16 h.
Setting [15] is: S. aureus 209P NIHJ-JCl, 10^6 CFU/ml, MH agar, 37° C., 16 hours.

In brackets after ≈: the same amount, converted by molar mass. Read-outs that look alike come from different tables or passages of the source.

As for `C=C(O/N=C(\C(=O)N[C@@H]1C(=O)N2C(C(=O)[O-])=C(OCc3cc[n+](C)cc3)CS[C@H]12)c1csc(N)n1)C(=O)O` [Example 37, Sodium 7β-[2-(2-aminothiazol-4-yl)-(Z)-2-(1-carboxylatovinyloxyimino)acetamido]-3-(1-methyl-4-pyridiniomethoxy)-3-cephem-4-carboxylate], the MIC is 0.025 µg/mL in test [1] (setting [8]); 0.025 µg/mL in test [2] (NIHJJC2, 16 h); < 0.006 µg/mL in test [3] (PCI602, 16 h); 0.025 µg/mL in test [4] (setting [9]); < 0.006 µg/mL in test [5] (setting [10]); 1.56 µg/mL in test [6] (16 h).

As for `C[n+]1ccc(COC2=C(C(=O)[O-])N3C(=O)[C@@H](NC(=O)/C(=N\OCc4ccccc4CC(=O)O)c4csc(N)n4)[C@H]3SC2)cc1` [Example 40, Sodium 7β-[2-(2-aminothiazol-4-yl)-(Z)-2-(2-carboxylatomethylbenzyloxyimino)acetamido]-3-(1-methyl-4-pyridiniomethoxy)-3-cephem-4-carboxylate], the MIC in test [1] (setting [8]) turned out to be 0.39 µg/mL; in test [2] (setting [11]), 0.39 µg/mL; in test [3] (setting [12]), 0.05 µg/mL; in test [4] (setting [9]), 0.0125 µg/mL; in test [5] (setting [10]) it was 0.1 µg/mL; in test [6] (setting [13]), 1.56 µg/mL.

With `CO/N=C(\C(=O)N[C@@H]1C(=O)N2C(C(=O)[O-])=C(OCc3nc(C)cs3)CS[C@H]12)c1csc(N)n1.[Na+]` [Example 16, Sodium 7β-[2-(2-aminothiazol-4-yl)-(Z)-2-methoxyiminoacetamido]-3-(4-methylthiazol-2-ylmethoxy)-3-cephem-4-carboxylate], the MIC in test [1] (setting [14]) is 0.2 µg/mL; in test [2] (NIHJJC2, 16 h), 0.2 µg/mL; in test [3] (PCI602, 16 h), < 0.006 µg/mL; in test [4] (HX19, 16 h), < 0.006 µg/mL; in test [7] (209P, 16 h), 3.12 µg/mL; in test [5] (IAM1184, 16 h), 0.2 µg/mL.

Turning to `C[n+]1ccc(COC2=C(C(=O)[O-])N3C(=O)[C@@H](NC(=O)/C(=N\OC(C)(C)C(=O)O)c4csc(N)n4)[C@H]3SC2)cc1` [Example 36, Sodium 7β-[2-(2-aminothiazol-4-yl)-(Z)-2-(1-carboxylato-1-methylethoxyimino)acetamido]-3-(1-methy-4-pyridiniomethoxy)-3-cephem-4-carboxylate], the MIC in test [1] (setting [8]) was 0.05 µg/mL; in test [2] (setting [11]), 0.05 µg/mL; in test [3] (setting [12]) it was 0.0125 µg/mL; in test [4] (setting [9]), 0.05 µg/mL; in test [5] (setting [10]), 0.025 µg/mL; in test [6] (16 h) it was 6.25 µg/mL.

Take `CO/N=C(\C(=O)N[C@@H]1C(=O)N2C(C(=O)[O-])=C(OCc3ccncc3)CS[C@H]12)c1csc(N)n1.[Na+]` [Example 1, Sodium 7β-[2-(2-aminothiazol-4-yl)-(Z)-2-methoxyiminoacetamido]-3-(4-pyridylmethoxy)-3-cephem-4-carboxylate]: the MIC was 0.2 µg/mL in test [1] (setting [14]); 0.2 µg/mL in test [2] (NIHJJC2, 16 h); < 0.006 µg/mL in test [3] (PCI602, 16 h); 0.05 µg/mL in test [4] (HX19, 16 h); 0.78 µg/mL in test [7] (209P, 16 h); 0.1 µg/mL in test [5] (IAM1184, 16 h).

Consider `CO/N=C(\C(=O)N[C@@H]1C(=O)N2C(C(=O)[O-])=C(OCc3ccc(C#N)cc3)CS[C@H]12)c1csc(N)n1.[Na+]` [Example 12, Sodium 7β-[2-(2-aminothiazol-4-yl)-(Z)-2-methoxyiminoacetamido]-3-(4-cyanobenzyloxy)-3-cephem-4-carboxylate], for which the MIC in test [1] (setting [14]) was determined as 0.78 µg/mL; in test [2] (NIHJJC2, 16 h), 0.78 µg/mL; in test [3] (PCI602, 16 h), 0.0125 µg/mL; in test [4] (HX19, 16 h) it was 0.025 µg/mL; in test [7] (209P, 16 h), 0.78 µg/mL; in test [5] (IAM1184, 16 h), 0.39 µg/mL.

As for `CO/N=C(\C(=O)N[C@@H]1C(=O)N2C(C(=O)[O-])=C(OCc3cccc[n+]3C)CS[C@H]12)c1csc(N)n1` [Example 44, 7β-[2-(2-aminothiazol-4-yl)-(Z)-2-methoxyiminoacetamido]-3-(1-methyl-2-pyridiniomethoxy)-3-cephem-4-carboxylate], the MIC in test [1] (setting [8]) came out at 0.2 µg/mL (≈ 0.396 µM); in test [2] (setting [11]), 0.39 µg/mL (≈ 0.773 µM); in test [3] (setting [12]) it was 0.05 µg/mL (≈ 0.0991 µM); in test [4] (setting [9]), 0.2 µg/mL (≈ 0.396 µM); in test [5] (setting [10]), 0.2 µg/mL (≈ 0.396 µM); in test [6] (setting [13]), 0.2 µg/mL (≈ 0.396 µM).

Turning to `CO/N=C(\C(=O)N[C@@H]1C(=O)N2C(C(=O)O)=C(OCc3ccc(C(N)=O)cc3)CS[C@H]12)c1csc(N)n1` [Example 14, Sodium 7β-[2-(2-aminothiazol-4-yl)-(Z)-2-methoxyiminoacetamido]-3-(4-carbamoylbenzVloxy)-3-cephem-4-carboxylate], the MIC in test [1] (setting [8]) is 0.2 µg/mL; in test [2] (setting [11]), 0.39 µg/mL; in test [3] (setting [12]) it was < 0.006 µg/mL; in test [4] (setting [9]), 0.05 µg/mL; in test [7] (setting [15]), 3.12 µg/mL; in test [5] (setting [10]) it was 0.1 µg/mL.

For `C[n+]1ccc(COC2=C(C(=O)[O-])N3C(=O)[C@@H](NC(=O)/C(=N\OC(C(=O)O)c4ccc(O)c(O)c4)c4csc(N)n4)[C@H]3SC2)cc1` (single isomer, unassigned) [Example 38, Sodium 7β-[2-(2-aminothiazol-4-yl)-(Z)-2-(α-carboxylato-3,4-dihydroxybenzyloxyimino)acetamido]-3-(1-methyl-4-pyridiniomethoxy)-3-cephem-4-carboxylate (diastereisomer A)], the MIC in test [1] (setting [8]) was determined as 0.039 µg/mL; in test [2] (setting [11]) it was 0.039 µg/mL; in test [3] (setting [12]) it was 0.025 µg/mL; in test [4] (setting [9]), 0.39 µg/mL; in test [5] (setting [10]) it was 0.1 µg/mL; in test [6] (setting [13]), 0.039 µg/mL.

As to `CO/N=C(\C(=O)N[C@@H]1C(=O)N2C(C(=O)[O-])=C(OCc3cc[n+](C)cc3)CS[C@H]12)c1csc(N)n1` [Example 32, 7β-[2-(2-aminothiazol-4-yl)-(Z)-2-methoxyiminoacetamido]-3-(1-methyl-4-pyridiniomethoxy)-3-cephem-4-carboxylate], the MIC in test [1] (setting [8]) is 0.1 µg/mL (≈ 0.198 µM); in test [2] (setting [11]), 0.1 µg/mL (≈ 0.198 µM); in test [3] (setting [12]), 0.025 µg/mL (≈ 0.0495 µM); in test [4] (setting [9]), 0.2 µg/mL (≈ 0.396 µM); in test [5] (setting [10]), 0.05 µg/mL (≈ 0.0991 µM); in test [6] (setting [13]), 0.039 µg/mL (≈ 0.0773 µM).

For `CC(C)(O/N=C(\C(=O)N[C@@H]1C(=O)N2C(C(=O)O)=C(OCc3ccncc3)CS[C@H]12)c1csc(N)n1)C(=O)O` [Example 4, Disodium 7β-[2-(2-aminothiaxol-4-yl)-(Z)-2-(1-carboxylato-1-methylethoxyimino)acetamido]-3-(4-pyridylmethoxy)-3-cephem-4-carboxylate], the MIC in test [1] (setting [8]) worked out at 0.039 µg/mL; in test [2] (setting [11]) it was 0.39 µg/mL; in test [3] (setting [12]), 0.05 µg/mL; in test [4] (setting [9]), 0.0125 µg/mL; in test [7] (209P, 16 h), 12.5 µg/mL; in test [5] (IAM1184, 16 h), 0.025 µg/mL.

In the case of `CCO/N=C(\C(=O)N[C@@H]1C(=O)N2C(C(=O)[O-])=C(OCc3cc[n+](CC(=O)O)cc3)CS[C@H]12)c1csc(N)n1` [Example 51, Sodium 7β-[2-(2-aminothiazol-4-yl)-(Z)-2-ethoxyiminoacetamido]-3-(1-carboxylatomethyl-4-pyridiniomethoxy)-3-cephem-4-carboxylate], the MIC turned out to be 0.1 µg/mL in test [1] (setting [8]); 0.2 µg/mL in test [2] (setting [11]); 0.025 µg/mL in test [3] (setting [12]); 0.05 µg/mL in test [4] (setting [9]); 0.1 µg/mL in test [5] (setting [10]); 3.12 µg/mL in test [6] (16 h).

On to `CO/N=C(\C(=O)N[C@@H]1C(=O)N2C(C(=O)[O-])=C(c3csnn3)CS[C@H]12)c1csc(N)n1.[Na+]` [Example 18, Sodium 7δ-[2-(2-aminothiazol-4-yl)-(Z)-2-methoxyiminoacetamido]-3-(1,2,3-thiadiazol-4-yl)-3-cephem-4-carboxylate], for which the “Minimum Inhibitory Concentration (MIC)” value in test [1] (E. cloacae 963, 10^6 CFU/ml, MH agar, 37° C., 16 hours) amounted to 0.390 µg/mL; in test [2] (E. coli NIHJ JC2, 10^6 CFU/ml, MH agar, 37° C., 16 hours), 0.390 µg/mL; in test [3] (K. pneumoniae PCI-602, 10^6 CFU/ml, MH agar, 37° C., 16 hours) it was 0.0125 µg/mL; in test [4] (P. vulgaris HX-19, 10^6 CFU/ml, MH agar, 37° C., 16 hours), 0.100 µg/mL; in test [7] (setting [15]), 3.12 µg/mL; in test [5] (S. marcescens IAM 1184, 10^6 CFU/ml, MH agar, 37° C., 16 hours), 0.390 µg/mL.

Values taken from US4918070A, “Cephalosporin derivatives and antibacterial agents” (Banyu Pharmaceutical Co., Ltd., priority 1987, dated 1990).
